For the assay, the target named is T1, HEK cells stably transfected with tetracycline inducible hNR1 and hNR2A (Homo sapiens, UniProt Q05586+Q12879).
T1 construct: expressed in transfected cells; host or cells: HEK cells, stably transfected, tetracycline/doxycycline inducible
Description: Assay 1: Cell-Based Assay, cytosolic calcium response to positive allosteric modulators (with 30 μM glycine and 300 nM L-glutamate, EC30). The following applies: Table 3; cytosolic calcium response, with 30 μM glycine and 300 nM L-glutamate (EC30); — = no plateau was reached. In outline:
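Cells induced 24 h with 7.5 μg mL^−1 doxycycline plus 500 μM (+)-ketamine, loaded 60 min at 37 °C with calcium dye in Mg-free HBSS (1.8 mM Ca, probenecid, 10 μM (+)-ketamine, pH 7.15). Peak RFU over 5 min after compound addition, scaled to 100 μM L-glutamate (100%) and 0 μM (0%); four-parameter Hill fit for EC50, max % if no plateau.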

T1 sequence (Q12879 23-1464, other chains not shown): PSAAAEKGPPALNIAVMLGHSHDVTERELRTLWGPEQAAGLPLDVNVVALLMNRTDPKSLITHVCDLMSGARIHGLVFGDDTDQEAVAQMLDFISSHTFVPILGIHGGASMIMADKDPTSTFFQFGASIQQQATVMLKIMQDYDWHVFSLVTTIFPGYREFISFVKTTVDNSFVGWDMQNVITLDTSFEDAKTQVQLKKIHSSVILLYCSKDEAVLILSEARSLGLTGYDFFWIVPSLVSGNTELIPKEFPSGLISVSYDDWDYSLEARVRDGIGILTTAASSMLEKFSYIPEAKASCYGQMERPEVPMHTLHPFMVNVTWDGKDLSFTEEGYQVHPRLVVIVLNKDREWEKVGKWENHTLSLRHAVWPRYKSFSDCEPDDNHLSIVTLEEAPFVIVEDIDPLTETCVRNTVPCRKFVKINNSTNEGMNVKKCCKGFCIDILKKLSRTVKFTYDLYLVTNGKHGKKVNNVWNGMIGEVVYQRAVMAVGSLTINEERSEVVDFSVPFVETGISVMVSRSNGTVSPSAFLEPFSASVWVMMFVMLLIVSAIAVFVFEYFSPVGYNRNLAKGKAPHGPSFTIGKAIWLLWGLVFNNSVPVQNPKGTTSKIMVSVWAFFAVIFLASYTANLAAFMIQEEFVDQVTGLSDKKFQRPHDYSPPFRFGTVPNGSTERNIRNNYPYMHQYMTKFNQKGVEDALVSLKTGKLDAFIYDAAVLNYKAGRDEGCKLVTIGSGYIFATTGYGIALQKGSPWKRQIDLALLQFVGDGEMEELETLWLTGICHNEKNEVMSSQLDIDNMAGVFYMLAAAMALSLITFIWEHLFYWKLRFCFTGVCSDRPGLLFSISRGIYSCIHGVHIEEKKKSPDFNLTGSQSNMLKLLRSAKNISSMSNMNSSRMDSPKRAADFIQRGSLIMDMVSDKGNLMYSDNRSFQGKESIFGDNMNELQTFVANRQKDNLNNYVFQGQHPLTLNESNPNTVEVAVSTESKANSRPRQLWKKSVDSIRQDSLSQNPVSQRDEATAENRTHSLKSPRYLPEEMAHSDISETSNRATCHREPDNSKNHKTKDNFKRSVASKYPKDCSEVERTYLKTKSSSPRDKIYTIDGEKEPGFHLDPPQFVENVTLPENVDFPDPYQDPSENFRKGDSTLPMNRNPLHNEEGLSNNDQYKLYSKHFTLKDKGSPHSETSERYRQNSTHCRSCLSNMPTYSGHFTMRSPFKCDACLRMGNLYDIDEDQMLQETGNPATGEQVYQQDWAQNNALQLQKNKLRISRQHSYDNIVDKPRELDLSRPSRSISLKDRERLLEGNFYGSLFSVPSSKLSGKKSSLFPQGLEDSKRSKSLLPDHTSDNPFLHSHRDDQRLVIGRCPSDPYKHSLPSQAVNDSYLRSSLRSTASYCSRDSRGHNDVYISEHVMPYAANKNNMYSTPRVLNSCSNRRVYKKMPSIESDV

`CNC(=O)Cc1c(C)sc2nc(Cc3cccc(Cl)c3F)cc(=O)n12` [compound 7, 2-[7-[(3-chloro-2-fluoro-phenyl)methyl]-2-methyl-5-oxo-thiazolo[3,2-a]pyrimidin-3-yl]-N-methyl-acetamide]: the EC50 – broadly, the concentration giving half of the maximal effect – worked out at 9.73 µM.
Next, `CCNC(=O)c1c(C)sc2nc(Cc3cccc(Cl)c3F)c(F)c(=O)n12` [compound 8, 7-[(3-chloro-2-fluoro-phenyl)methyl]-N-ethyl-6-fluoro-2-methyl-5-oxo-thiazolo[3,2-a]pyrimidine-3-carboxamide]: 2.55 µM; `CNC(=O)c1c(C)sc2nc(Cc3cc(F)c(F)cc3OC)cc(=O)n12` [compound 9, 7-[(4,5-difluoro-2-methoxy-phenyl)methyl]-N,2-dimethyl-5-oxo-thiazolo[3,2-a]pyrimidine-3-carboxamide]: 8.04 µM.
Next, `Cc1sc2nc(Cc3cccc(C#N)c3F)cc(=O)n2c1C1CC1C` (centres unmarked) [compound 10, 2-fluoro-3-[[2-methyl-3-(2-methylcyclopropyl)-5-oxo-thiazolo[3,2-a]pyrimidin-7-yl]methyl]benzonitrile]: 0.471 µM.
The figure for `CNC(=O)Cc1c(C)sc2nc(Cc3cccc(C4CC4)c3F)cc(=O)n12` [compound 11, 2-[7-[(3-cyclopropyl-2-fluoro-phenyl)methyl]-2-methyl-5-oxo-thiazolo[3,2-a]pyrimidin-3-yl]-N-methyl-acetamide] is 1.14 µM; for `Cc1sc2nc(Oc3cccc(C(F)(F)F)c3)cc(=O)n2c1C1CC1CO` (centres unmarked) [compound 12, 3-[2-(Hydroxymethyl)cyclopropyl]-2-methyl-7-[3-(trifluoromethyl)phenoxy]thiazolo[3,2-a]pyrimidin-5-one] it is 2.05 µM; for `CCNC(=O)c1c(C)sc2nc(Cc3cccc(C(F)(F)F)c3F)c(F)c(=O)n12` [compound 13, N-ethyl-6-fluoro-7-[[2-fluoro-3-(trifluoromethyl)phenyl]methyl]-2-methyl-5-oxo-thiazolo[3,2-a]pyrimidine-3-carboxamide] it is 0.858 µM.
As for `CNC(=O)c1c(C)sc2nc(Cc3cc(C(F)(F)F)ccc3Cl)cc(=O)n12` [compound 14, 7-[[2-chloro-5-(trifluoromethyl)phenyl]methyl]-N,2-dimethyl-5-oxo-thiazolo[3,2-a]pyrimidine-3-carboxamide], the EC50 was determined as 1.56 µM.
Next, `Cc1sc2nc(Cc3cccc(C#N)c3F)c(F)c(=O)n2c1C(=O)NCC(F)(F)F` [compound 15, 7-[(3-cyano-2-fluoro-phenyl)methyl]-6-fluoro-2-methyl-5-oxo-N-(2,2,2-trifluoroethyl)thiazolo[3,2-a]pyrimidine-3-carboxamide]: 9.02 µM; `CNC(=O)c1c(C)sc2nc(Cc3cc(F)c(F)cc3Cl)cc(=O)n12` [compound 16, 7-[(2-chloro-4,5-difluoro-phenyl)methyl]-N,2-dimethyl-5-oxo-thiazolo[3,2-a]pyrimidine-3-carboxamide]: 15.5 µM; `CCNC(=O)c1c(C)sc2nc(Cc3cc(F)c(F)cc3CCF)cc(=O)n12` [compound 17, 7-[[4,5-difluoro-2-(2-fluoroethyl)phenyl]methyl]-N-ethyl-2-methyl-5-oxo-thiazolo[3,2-a]pyrimidine-3-carboxamide]: 7.04 µM.
Turning to `CNC(=O)Cc1c(C)sc2nc(Cn3nc(C(F)(F)F)cc3C3CC3)cc(=O)n12` [compound 18, 2-[7-[[5-cyclopropyl-3-(trifluoromethyl)pyrazol-1-yl]methyl]-2-methyl-5-oxo-thiazolo[3,2-a]pyrimidin-3-yl]-N-methyl-acetamide], the EC50 stood at 2.25 µM.
Next, `CNC(=O)Cc1c(C)sc2nc(Cc3cccc(C(F)(F)F)c3F)cc(=O)n12` [compound 19, 2-[7-[[2-fluoro-3-(trifluoromethyl)phenyl]methyl]-2-methyl-5-oxo-thiazolo[3,2-a]pyrimidin-3-yl]-N-methyl-acetamide]: 5.45 µM; `CCNC(=O)c1c(C)sc2nc(Cn3nc(C)cc3Cl)cc(=O)n12` [compound 20, 7-[(5-chloro-3-methyl-pyrazol-1-yl)methyl]-N-ethyl-2-methyl-5-oxo-thiazolo[3,2-a]pyrimidine-3-carboxamide]: 10.2 µM; `CCNC(=O)c1c(C)sc2nc(Cn3nc(Cl)cc3C)cc(=O)n12` [compound 21, 7-[(3-chloro-5-methyl-pyrazol-1-yl)methyl]-N-ethyl-2-methyl-5-oxo-thiazolo[3,2-a]pyrimidine-3-carboxamide]: 7.88 µM.
Next, `CCNC(=O)c1c(C)sc2nc(Cn3nc(Cl)cc3C3CC3)cc(=O)n12` [compound 22, 7-[(3-chloro-5-cyclopropyl-pyrazol-1-yl)methyl]-N-ethyl-2-methyl-5-oxo-thiazolo[3,2-a]pyrimidine-3-carboxamide]: 4.13 µM; `CCNC(=O)c1c(C)sc2nc(Cn3nc(C4CC4)cc3Cl)cc(=O)n12` [compound 23, 7-[(5-chloro-3-cyclopropyl-pyrazol-1-yl)methyl]-N-ethyl-2-methyl-5-oxo-thiazolo[3,2-a]pyrimidine-3-carboxamide]: 3.48 µM; `Cc1sc2nc(Cc3nc(C(F)(F)F)cs3)cc(=O)n2c1C1CC1CO` (centres unmarked) [compound 24, 3-[2-(Hydroxymethyl)cyclopropyl]-2-methyl-7-[[4-(trifluoromethyl)thiazol-2-yl]methyl]thiazolo[3,2-a]pyrimidin-5-one]: 1.33 µM.
Next, `CCN(Cc1cc(=O)n2c(CC(=O)NC)c(C)sc2n1)c1ccc(F)cc1` [compound 25, 2-[7-[(N-ethyl-4-fluoro-anilino)methyl]-2-methyl-5-oxo-thiazolo[3,2-a]pyrimidin-3-yl]-N-methyl-acetamide]: 0.292 µM.
For the compound `CCNC(=O)c1c(C)sc2nc(Cn3nc(C(F)(F)F)cc3C)cc(=O)n12` [compound 26, N-ethyl-2-methyl-7-[[5-methyl-3-(trifluoromethyl)pyrazol-1-yl]methyl]-5-oxo-thiazolo[3,2-a]pyrimidine-3-carboxamide], the concentration for a half-maximal effect (EC50) is 4.82 µM.
Consider `CCNC(=O)c1c(C)sc2nc(Cn3nc(C)cc3C(F)(F)F)cc(=O)n12` [compound 27, N-ethyl-2-methyl-7-[[3-methyl-5-(trifluoromethyl)pyrazol-1-yl]methyl]-5-oxo-thiazolo[3,2-a]pyrimidine-3-carboxamide], for which the concentration for a half-maximal effect (EC50) stood at 10.6 µM.
`CCNC(=O)c1c(C)sc2nc(Cn3nc(C(F)(F)F)cc3Cl)cc(=O)n12` [compound 28, 7-[[5-Chloro-3-(trifluoromethyl)-1H-pyrazol-1-yl]methyl]-N-ethyl-2-methyl-5-oxo-5H-[1,3]thiazolo[3,2-a]pyrimidine-3-carboxamide]: the EC50 was found to be 0.388 µM.
`CCNC(=O)c1c(C)sc2nc(Cn3nc(Cl)cc3C(F)(F)F)cc(=O)n12` [compound 29, 7-[[3-chloro-5-(trifluoromethyl)pyrazol-1-yl]methyl]-N-ethyl-2-methyl-5-oxo-thiazolo[3,2-a]pyrimidine-3-carboxamide]: the concentration for a half-maximal effect (EC50) was 1.76 µM.
Next, `CNC(=O)c1c(C)sc2nc(Cc3cccc(C(F)F)c3F)c(F)c(=O)n12` [compound 30, 7-[[3-(difluoromethyl)-2-fluoro-phenyl]methyl]-6-fluoro-N,2-dimethyl-5-oxo-thiazolo[3,2-a]pyrimidine-3-carboxamide]: 2.57 µM.
Next, `CCNC(=O)c1c(C)sc2nc(Cc3cccc(C(F)F)c3F)c(F)c(=O)n12` [compound 31, 7-[[3-(difluoromethyl)-2-fluoro-phenyl]methyl]-N-ethyl-6-fluoro-2-methyl-5-oxo-thiazolo[3,2-a]pyrimidine-3-carboxamide]: 4.17 µM; `CNC(=O)c1c(C)sc2nc(Cc3ccc4c(c3)CC4)cc(=O)n12` [compound 32, 7-(4-bicyclo[4.2.0]octa-1,3,5-trienylmethyl)-N,2-dimethyl-5-oxo-thiazolo[3,2-a]pyrimidine-3-carboxamide]: 5.95 µM; `CCNC(=O)c1c(C)sc2nc(Cc3cccc(C4(O)CC4)c3F)cc(=O)n12` [compound 33, N-ethyl-7-[[2-fluoro-3-(1-hydroxycyclopropyl)phenyl]methyl]-2-methyl-5-oxo-thiazolo[3,2-a]pyrimidine-3-carboxamide]: 6.43 µM.
Next, `Cc1sc2nc(Oc3cccc(C(F)(F)F)c3)c(F)c(=O)n2c1C1CC1CO` (centres unmarked) [compound 34, 6-fluoro-3-[2-(hydroxymethyl)cyclopropyl]-2-methyl-7-[3-(trifluoromethyl)phenoxy]thiazolo[3,2-a]pyrimidin-5-one]: 24.5 µM; `CCNC(=O)c1c(C)sc2nc(Cc3cccc(C4(F)CC4)c3F)cc(=O)n12` [compound 35, N-ethyl-7-[[2-fluoro-3-(1-fluorocyclopropyl)phenyl]methyl]-2-methyl-5-oxo-thiazolo[3,2-a]pyrimidine-3-carboxamide]: 3.99 µM.
`C=C(CF)c1cccc(Cc2cc(=O)n3c(C(=O)NCC)c(C)sc3n2)c1F` [compound 36, N-ethyl-7-[[2-fluoro-3-[1-(fluoromethyl)vinyl]phenyl]methyl]-2-methyl-5-oxo-thiazolo[3,2-a]pyrimidine-3-carboxamide]: the half-maximal effective concentration (EC50) worked out at 1.72 µM.
Next, `C#Cc1cc(F)c(F)cc1Cc1cc(=O)n2c(C(=O)NC)c(C)sc2n1` [compound 37, 7-[(2-ethynyl-4,5-difluoro-phenyl)methyl]-N,2-dimethyl-5-oxo-thiazolo[3,2-a]pyrimidine-3-carboxamide]: 9.02 µM.
In the case of `Cc1sc2nc(Cc3cccc(C#N)c3F)cc(=O)n2c1C1CC1C(F)(F)F` (centres unmarked) [compound 38, 2-fluoro-3-[[2-methyl-5-oxo-3-[2-(trifluoromethyl)cyclopropyl]thiazolo[3,2-a]pyrimidin-7-yl]methyl]benzonitrile], the 50% effective concentration (EC50) turned out to be 0.533 µM.

The record behind these values is patent publication US9988400B2 (Genentech, Inc., priority 2013, dated 2018).
